{"source": "paper PMC11448502", "about": "“Cryo-EM structures of the human P2X1 receptor reveal subtype-specific architecture and antagonism by supramolecular ligand-binding” (Nature Communications, 2024)", "key": {"hP2X1 R292A": {"biological_target": "T1, hP2X1 R292A (Homo sapiens, UniProt P51575, R292A)", "T1 construct": "hP2X1 mRNA that was made from linearized full-length wild-type or mutant pcDNA 3.1x; expressed in transfected cells; host or cells: Xenopus laevis oocytes (mRNA injection)", "T1 sequence (P51575 1-399 R292A)": "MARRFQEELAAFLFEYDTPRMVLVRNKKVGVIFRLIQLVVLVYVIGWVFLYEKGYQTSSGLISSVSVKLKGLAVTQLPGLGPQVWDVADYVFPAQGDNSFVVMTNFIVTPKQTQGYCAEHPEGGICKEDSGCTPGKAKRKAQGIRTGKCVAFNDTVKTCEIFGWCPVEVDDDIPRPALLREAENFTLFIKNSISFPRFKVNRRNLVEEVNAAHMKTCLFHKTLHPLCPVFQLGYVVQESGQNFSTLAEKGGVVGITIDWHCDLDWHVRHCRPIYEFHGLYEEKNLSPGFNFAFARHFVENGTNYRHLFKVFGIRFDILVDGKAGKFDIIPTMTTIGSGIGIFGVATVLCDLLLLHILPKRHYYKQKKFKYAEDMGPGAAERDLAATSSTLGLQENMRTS", "assay": "ATP dose response (EC50), TEVC in oocytes", "type": "cell-based", "description": "(§1) Oocytes were purchased defolliculated from Ecocyte Bioscience in Barth’s Solution (88 mM NaCl, 1 mM KCl, 0.82 mM MgSO4, 0.33 mM Ca(NO3)2, 0.41 mM CaCl2, 2.4 mM NaHCO3, 5 mM Tris-HCl) supplemented with penicillin (100 U/mL) and streptomycin (100 µg/mL). Xenopus laevis oocytes were then injected with 50 nL of 100 ng/μL hP2X1 mRNA that was made from linearized full-length wild-type or mutant pcDNA 3.1x according to the protocol provided in the mMessage mMachine kit (Invitrogen). Injected oocytes were allowed to express for ~20 hours at 18 °C before recording was performed.\n(§2) Data acquisition was performed using the Oocyte Clamp OC-725C amplifier and pClamp 8.2 software. Buffers were applied using a gravity fed RSC-200 Rapid Solution Changer that flows at ~5 mL/min. All experiments use Sutter filamented glass 10 cm in length with an inner diameter of 0.69 mm and an outer diameter of 1.2 mm to impale oocytes and clamp the holding voltage at −60 mV. Experiments were recorded in buffer containing 10 mM HEPES (pH 7.4), 140 mM NaCl, 5 mM KCl, 2 mM CaCl2, 2 mM MgCl2, and 10 mM glucose.\n(§3) Excitatory responses to a dilution series of ATP between 6.4 nM and 10 mM were examined across the different mutants. Each evoked response was normalized to an initial ATP-induced current evoked by the following concentrations: 500 µM ATP for R292A, 2 mM ATP for K309A, and 100 µM ATP for the remaining mutants and wild-type receptor. The data was fit in Prism 9 using the nonlinear regression named “EC50, x is concentration” to afford EC50 values. This value was then averaged amongst each singular condition and reported as an average plus or minus the standard deviation."}, "hP2X1 WT": {"biological_target": "T2, hP2X1 WT (Homo sapiens, UniProt P51575)", "T2 construct": "hP2X1 mRNA that was made from linearized full-length wild-type or mutant pcDNA 3.1x; expressed in transfected cells; host or cells: Xenopus laevis oocytes (mRNA injection)", "T2 sequence (P51575 1-399)": "T1 sequence (P51575 1-399 R292A) with A292R", "assay": "ATP dose response (EC50), TEVC in oocytes", "type": "cell-based", "description": "as §1, §2, §3"}, "P2X7 receptor": {"biological_target": "P2X7 receptor", "set-up": "method as in PMID 33125712, PMID 18657557", "details": "read-out: apparent affinity for ATP, cited from earlier work"}}, "note": "Positions count from the first letter of the chain named. Several values for one entry are separate records, joined by “and”; a condition that tells them apart may be missing. Equal values may be shown once. Read-outs that look alike come from different tables or passages of the source.", "data": [{"compound": "Nc1ncnc2c1ncn2[C@@H]1O[C@H](COP(=O)(O)OP(=O)(O)OP(=O)(O)O)[C@@H](O)[C@H]1O", "note": "[ATP]", "values": [{"measurement": "EC50 of ATP", "setting": "hP2X1 R292A; TEVC", "result": "impacted"}, {"measurement": "Normalized Current", "setting": "hP2X1 R292A; [ATP] 1.000E-04 M", "result": "0.772 and 0.7521 and 0.7236"}, {"measurement": "Normalized Current", "setting": "hP2X1 R292A; [ATP] 1.600E-07 M", "result": 0.000000}, {"measurement": "Normalized Current", "setting": "hP2X1 R292A; [ATP] 2.000E-05 M", "result": "0.2643 and 0.1768 and 0.1722"}, {"measurement": "Normalized Current", "setting": "hP2X1 R292A; [ATP] 2.500E-03 M", "result": "1.04 and 1.022 and 0.9381"}, {"measurement": "Normalized Current", "setting": "hP2X1 R292A; [ATP] 5.000E-04 M", "result": "0.9697 and 0.8815 and 0.878"}, {"measurement": "EC50", "setting": "hP2X1 WT; TEVC, Xenopus laevis oocytes, mean ± SD, triplicate, read-out: apparent affinity (EC50) of ATP", "result": "1.7 ± 0.3", "unit": "µM"}, {"measurement": "Normalized Current", "setting": "hP2X1 WT; [ATP] 1.000E-04 M", "result": "1.041 and 0.9705 and 0.9151"}, {"measurement": "Normalized Current", "setting": "hP2X1 WT; [ATP] 1.600E-07 M", "result": "0.08801 and 0.07128 and 0.05984"}, {"measurement": "Normalized Current", "setting": "hP2X1 WT; [ATP] 4.000E-06 M", "result": "0.7387 and 0.5911 and 0.5682"}, {"measurement": "Normalized Current", "setting": "hP2X1 WT; [ATP] 5.000E-04 M", "result": "1.055 and 1.025 and 0.9207"}, {"measurement": "Normalized Current", "setting": "hP2X1 WT; [ATP] 8.000E-07 M", "result": "0.4523 and 0.3946 and 0.3316"}, {"measurement": "Hill slope of activation by ATP", "setting": "hP2X1 WT; mean ± SD of three EC50 traces", "result": "0.9 ± 0.2"}, {"measurement": "EC50", "setting": "P2X7 receptor", "result": "> 100", "unit": "µM"}, {"measurement": "EC50", "setting": "P2X7 receptor; under certain conditions", "result": "> 1000", "unit": "µM"}]}]}
